In patent publication US10045980B2, “Inhibitor of p38 map kinase” (RESPIVERT LTD, priority 2014, dated 2018):

Experiments:
[1] = target: T1, GSK 3α enzyme isoform (Homo sapiens, UniProt P49840); assay: GSK 3α enzyme inhibition (Z-LYTE FRET); assay type: biochemical; settings: read-out: IC50 Values for Enzyme Inhibition GSK3α
T1 construct: purchased Life Technologies
Experimental: (§1) The enzyme inhibitory activities of the compound disclosed herein were determined by FRET using synthetic peptides labelled with both donor and acceptor fluorophores (Z-LYTE, Life Technologies, Paisley, UK).
Development reagent (protease, 5 μL) was added for 1 h prior to detection in a fluorescence microplate reader (EnVision, Perkin Elmer).
(§2) In all cases, the site-specific protease cleaves non-phosphorylated peptide only and eliminates the FRET signal. Phosphorylation levels of each reaction were calculated using the ratio of coumarin emission (donor) over fluorescein emission (acceptor), for which low ratios indicate high phosphorylation and high ratios indicate low phosphorylation levels.

[2] = system: PBMCs; assay: Cell mitosis assay; assay type: cell-based; settings: Homo sapiens, PBMC; At 5 ug/mL; PHA-treated PBMCs, 20 h exposure; Mean ± SEM
Experimental: Peripheral blood mononucleocytes (PBMCs) from healthy subjects were separated from whole blood (Quintiles, London, UK) using a density gradient (Histopaque-1077, Sigma-Aldrich, Poole, UK). The PBMCs (3 million cells per sample) were subsequently treated with 2% PHA (Sigma-Aldrich, Poole, UK) for 48 h, followed by a 20 h exposure to varying concentrations of test compounds. At 2 h before collection, PBMCs were treated with demecolcine (0.1 μg/mL; Life Technologies, Paisley, UK,) to arrest cells in metaphase.

[3] = system: d-U937 cells; assay: LPS-induced TNFα/IL-8 release in d-U937 cells; assay type: cell-based; settings: Homo sapiens
Experimental: U937 cells, a human monocytic cell line, were differentiated into macrophage-type cells by incubation with PMA (100-200 ng/mL) for 48 to 72 hr. Cells were pre-incubated with final concentrations of test compound for 2 h and were then stimulated with LPS (0.1 μg/mL; from E. Coli: 0111:64, Sigma) for 4 h. The supernatant was collected for determination of TNFα and IL-8 concentrations by sandwich ELISA (Duo-set, R&D systems). […] The relative 50% effective concentration (REC50) was determined from the resultant concentration-response curve. The inhibition of IL-8 production was calculated at each concentration of test compound by comparison with vehicle control.

[4] = system: BEAS2B cells infected with human rhinovirus RV16; assay: Rhinovirus-induced IL-8 release; assay type: cell-based; settings: FIG. 9
Experimental: Human rhinovirus RV16 is obtained from the American Type Culture Collection (Manassas, Va.). Viral stocks are generated by infecting MRC5 cells with HRV until 80% of the cells were cytopathic.
BEAS2B cells are infected with HRV at an MOI of 1.2 and incubated for 1 h at 33° C. with gentle shaking for to promote absorption. The cells are then washed with PBS, fresh media added and the cells are incubated for a further 72 h. The supernatant is collected for assay of IL-8 concentrations using a Duoset ELISA development kit (R&D systems, Minneapolis, Minn.). Compounds are added 2 h before HRV infection and 1 h after infection when non-infected HRV is washed out.

[5] = target: T2, p38MAPKγ (MAPK12) (Homo sapiens, UniProt P53778); assay: p38 MAPKγ enzyme inhibition (Z-LYTE FRET); assay type: biochemical
T2 construct: purchased Life Technologies
T2 sequence (P53778 1-367): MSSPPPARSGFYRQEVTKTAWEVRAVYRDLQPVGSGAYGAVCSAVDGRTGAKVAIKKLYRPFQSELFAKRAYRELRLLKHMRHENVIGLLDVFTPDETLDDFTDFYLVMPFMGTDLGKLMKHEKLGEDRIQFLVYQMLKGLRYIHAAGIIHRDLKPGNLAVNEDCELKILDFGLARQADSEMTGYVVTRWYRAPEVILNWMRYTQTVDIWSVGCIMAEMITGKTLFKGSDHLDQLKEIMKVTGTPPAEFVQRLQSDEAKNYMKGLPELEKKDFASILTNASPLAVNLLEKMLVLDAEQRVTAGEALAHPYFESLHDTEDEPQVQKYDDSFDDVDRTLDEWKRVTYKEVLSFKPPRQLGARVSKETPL
Experimental: as §1
The enzyme (800 ng/mL, 2.5 μL) was incubated with the test compound (2.5 μL at either 40 μg/mL, 12 μg/mL, 4 μg/mL, 1.2 μg/mL, 0.4 μg/mL, 0.12 μg/mL, 0.04 μg/mL, 0.012 μg/mL, 0.004 μg/mL or 0.0012 μg/mL) for 2 h at RT. The FRET peptides (8 μM, 2.5 μL), and appropriate ATP solution (2.5 μL, 400 μM) were then added to the enzymes/compound mixtures and incubated for 1 h at RT. Development reagent (protease, 5 μL) was added for 1 h prior to detection in a fluorescence microplate reader (EnVision, Perkin Elmer).
as §2

[6] = target: T3, c-Src (Homo sapiens, UniProt P12931); assay: c-Src enzyme inhibition (Z-LYTE FRET); assay type: biochemical
T3 construct: purchased Life Technologies
T3 sequence (P12931 whole entry): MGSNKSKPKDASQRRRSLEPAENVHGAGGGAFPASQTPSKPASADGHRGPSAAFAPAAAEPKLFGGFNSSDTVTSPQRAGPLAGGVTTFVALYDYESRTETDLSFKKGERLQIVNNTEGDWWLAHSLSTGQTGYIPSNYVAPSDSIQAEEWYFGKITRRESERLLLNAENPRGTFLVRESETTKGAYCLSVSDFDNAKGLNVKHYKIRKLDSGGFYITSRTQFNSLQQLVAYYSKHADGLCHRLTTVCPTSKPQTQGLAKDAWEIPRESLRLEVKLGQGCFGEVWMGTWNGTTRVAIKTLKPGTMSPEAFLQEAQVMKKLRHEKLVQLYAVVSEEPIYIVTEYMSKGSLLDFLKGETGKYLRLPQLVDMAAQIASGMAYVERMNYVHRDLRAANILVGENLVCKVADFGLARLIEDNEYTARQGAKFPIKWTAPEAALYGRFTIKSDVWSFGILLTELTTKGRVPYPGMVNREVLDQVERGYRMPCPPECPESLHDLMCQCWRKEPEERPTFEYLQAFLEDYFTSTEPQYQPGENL
Experimental: as §1
(§3) The relevant enzyme (1000 ng/mL, 1400 ng/mL or 2000 ng/mL respectively, 2.5 μL) was incubated with the test compound (either 40 μg/mL, 12 μg/mL, 4 μg/mL, 1.2 μg/mL, 0.4 μg/mL, 0.12 μg/mL, 0.04 μg/mL, 0.012 μg/mL, 0.004 μg/mL or 0.0012 μg/mL, 2.5 μL each) for 2 h at RT. The FRET peptides (8 μM, 2.5 μL), and appropriate ATP solutions (2.5 μL, 800 μM for c-Src, and 60 μM ATP for HCK and Syk) were then added to the enzyme/compound mixtures and incubated for 1 h at RT. Development reagent (protease, 5 μL) was added for 1 h prior to detection in a fluorescence microplate reader (EnVision, Perkin Elmer).
as §2

[7] = target: T4, Syk (Homo sapiens, UniProt P43405); assay: Syk enzyme inhibition (Z-LYTE FRET); assay type: biochemical
T4 construct: purchased Life Technologies
Experimental: as §1, §3, §2

[8] = target: T5, Hck (Homo sapiens, UniProt P08631); assay: Hck enzyme inhibition (Z-LYTE FRET); assay type: biochemical
T5 construct: purchased Life Technologies
T5 sequence (P08631 22-526): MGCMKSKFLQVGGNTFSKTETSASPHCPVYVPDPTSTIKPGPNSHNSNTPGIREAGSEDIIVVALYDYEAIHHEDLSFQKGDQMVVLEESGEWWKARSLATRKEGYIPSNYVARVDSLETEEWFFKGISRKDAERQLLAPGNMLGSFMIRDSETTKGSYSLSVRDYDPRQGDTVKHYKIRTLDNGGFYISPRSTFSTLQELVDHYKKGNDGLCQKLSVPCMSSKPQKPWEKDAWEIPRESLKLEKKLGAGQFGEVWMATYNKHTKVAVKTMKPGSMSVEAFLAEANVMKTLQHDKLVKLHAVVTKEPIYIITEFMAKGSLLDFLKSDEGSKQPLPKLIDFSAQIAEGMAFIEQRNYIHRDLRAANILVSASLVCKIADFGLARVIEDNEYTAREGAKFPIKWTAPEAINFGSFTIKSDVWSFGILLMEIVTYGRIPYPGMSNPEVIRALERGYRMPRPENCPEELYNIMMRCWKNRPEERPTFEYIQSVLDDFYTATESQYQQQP
Experimental: as §1, §3, §2

T1 sequence (P49840 whole entry, canonical isoform): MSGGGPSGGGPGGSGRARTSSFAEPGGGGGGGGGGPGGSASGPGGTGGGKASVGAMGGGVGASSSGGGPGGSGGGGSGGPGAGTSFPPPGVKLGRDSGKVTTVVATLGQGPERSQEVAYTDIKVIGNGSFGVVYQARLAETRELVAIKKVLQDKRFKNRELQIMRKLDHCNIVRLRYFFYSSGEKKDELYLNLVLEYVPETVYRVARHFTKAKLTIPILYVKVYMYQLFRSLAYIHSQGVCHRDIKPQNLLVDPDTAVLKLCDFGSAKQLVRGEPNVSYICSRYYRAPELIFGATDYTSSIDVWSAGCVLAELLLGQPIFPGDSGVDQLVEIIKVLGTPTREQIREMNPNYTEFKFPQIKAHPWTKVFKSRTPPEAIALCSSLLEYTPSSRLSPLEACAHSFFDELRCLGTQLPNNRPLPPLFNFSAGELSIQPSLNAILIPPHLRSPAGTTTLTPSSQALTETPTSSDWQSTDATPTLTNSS

Compound `CCc1cncc(Nc2cc(COc3ccc(NC(=O)Nc4cc(C(C)(C)C)nn4-c4ccc(C)cc4)c4ccccc34)ccn2)n1` [Compound of the invention, 1-(3-(tert-butyl)-1-(p-tolyl)-1H-pyrazol-5-yl)-3-(4-((2-((6-ethylpyrazin-2-yl)amino)pyridin-4-yl)methoxy)naphthalen-1-yl)urea] has an IC50 [1] of over 15100 nM, an inhibition at 5 µg/mL [2] of 18 ± 7% and an EC50 ([3]; dU937, 4 h, read-out: LPS Induced Release TNFα REC50 (dU937)) of 5.5 nM. The IC50 ([3]; dU937, d-U937 cells, LPS 0.1 μg/mL, 4 h) was 11.4 nM, the “inhibition of HRV-induced IL-8” value [4] was “dose-dependent inhibition” and the IC50 [5] was 152 nM. For the same compound, the IC50 [6] was 199 nM, the IC50 [7] was over 16000 nM and the IC50 [8] was 55 nM.
